Consider 2 substances from US5324633A, “Method and apparatus for measuring binding affinity” (Affymax Technologies N.V., priority 1991, dated 1994).

pKd: −log10 of the molar value. Like-named read-outs stand apart in the source and are kept apart here. Where no end group is shown, it is not given here.

For assay [1], the system named is Herz antibody. In words: Binding affinity of fluorescein-labelled receptor to surface-bound peptide, confocal fluorescence intensity at varying receptor concentrations. From the text: At step 104 the array or arrays of polymers are exposed to a receptor at a first solution concentration [R]1. According to some embodiments the receptor is marked with an appropriate label such as a fluorescein tag. Fluorescent tags are preferred because the measurements herein are usually taken with a receptor solution in contact with the immobilized ligands to ensure that the immobilized ligand are in equilibrium with the receptor. […] Confocal microscopy provides one preferred method of distinguishing between surface receptor fluorescence and background fluorescence from bulk solution receptors, due to the limited depth of field of a confocal microscope. Because the microscope cannot completely exclude fluorescence from bulk solution, contributions of the bulk fluorescence can be eliminated by comparing areas of derivatized and underivatized substrates. This method for eliminating background fluorescence may not be accurate at high receptor concentrations, when non-specific receptor binding to underivatized substrates becomes non-negligible.
At step 106 the array of the polymers is exposed to the receptor, for a time sufficient to allow receptor-ligand interaction, preferably to equilibrium conditions, and at step 108 the fluorescence intensity of the receptor at each of the concentrations [R]n is determined for each of the ligands on each array. […]
At step 110 this information is fit to analysis equations or otherwise processed for determination of the binding affinity of the receptor to the various ligands on the substrate and at step 112 the Kd values, among others, are extracted. In a most preferred embodiment the data are used to determine binding affinity by determining the slope of a best fit line through a plot having, on the y-axis, the ratio of fluorescence intensity to receptor concentration and, on the x-axis, the fluorescence intensity. […] To faciltate comparison to other experiments, one can plot normalized fluorescence intensity on the y axis or receptor concentration on the x axis. […]

Assay [2] has as its target Herz antibody. Particulars: solution, comparison value, cited from earlier work.

Consider YGGFL, for which the “binding affinity by interpolating plot of relative fluorescence intensity vs log10 receptor concentration (FIG. 5)” value in assay [1] (interpolated between 10^-8 M and 10^-9 M curves, peptide synthesized as free peptide then immobilized on surface) is “about 1.8×10^-8 M”. Moreover, in assay [1] (peptide synthesized on substrate, equilibrium over about 24 hours, non-derivatized substrate background subtracted), the “Kd from slope of best fit line, ratio of fluorescence intensity to receptor concentration vs fluorescence intensity (FIG. 4)” value stood at 18 nM. Also, in assay [2] (read-out: Kd value from other solution experiments), the pKd is 8.00.
With YGTFL (not fully specified), the pKd in assay [1] (sequences synthesized on different chips, exposed to Herz antibody, read-out: Kd / binding affinity from isotherms (FIG. 6)) was around 6.15; in assay [2] (read-out: binding affinity value from other solution experiments), 6.30.
